System: SKCO1 cells
Assay: SKCO1 cells viability (CellTiter-Fluor) as readout of proliferation
Assay type: cell-based, human
Conditions: 5 mM ALA at day 0, no medium refresh
Protocol: (A) Heme content in SHSY5Y cells non-treated (NT) or treated with 5 mM ALA for 15 hours. Values are expressed as pmol heme/mg protein. Data represent mean±SEM, n=3; *=P<0.05. (B, C) qRT-PCR analysis of the expression of ALAS1 (B) and FLVCR1a (C) in SHSY5Y cells non-treated (NT) or treated with 5 mM ALA for 15 hours. Transcript abundance, normalized to beta-actin mRNA expression, is expressed as a fold increase over a calibrator sample. Data represent mean±SEM, n=4. For statistical analyses, an unpaired Student's t-test was used; *p<0.05. (D) qRT-PCR analysis of the expression of ALAS1 in SKCO1 cells untreated (NT) or treated with 5 mM ALA for 24 hours. Transcript abundance, normalized to beta-actin mRNA expression, is expressed as a fold increase over a calibrator sample. Data represent mean±SEM, n=5. […] Band intensities were measured by densitometry and normalized to beta-actin expression. […] (F) Proliferation of SHSY5Y cells assessed by crystal violet staining at different time points (starting from the day after plating, named “day 0”). Treatment with 5 mM ALA occurred at “day 0” and cells were monitored until the end of the experiment without medium refresh. […] (G) SKCO1 cells viability measured by the CellTiter-Fluor Cell Viability Assay (Promega, Madison, WI USA, catalog n°G6080) at different time points, starting from the day after plating (named “day 0”), as a readout of cell proliferation. […]

SMILES: Cl.NCC(=O)CCC(=O)O [5-ALA, 5-Aminolevulinic acid hydrochloride]
- cell proliferation (cell viability): Reduced proliferation

From patent publication US20240285670A1, “THERAPEUTIC TREATMENT OF TUMORS BY BLOCKING THE HEME SYNTHESIS-EXPORT AXIS” (Università degli Studi di Torino, priority 2021, published 2024)
